ChEMBL document CHEMBL2057158, “Synthesis and cytotoxic activity of 4-N-carboxybutyl-5-fluorocytosyl-Arg-Gln-Trp-Arg-Arg-Trp-Trp-Gln-Arg-NH₂” (Bioorg Med Chem Lett, 2012)
The source made the active and inactive calls.

What was measured:
Format in all cases: functional, cell-based
HepG2 [1] = assay: Induction of apoptosis in human HepG2 cells assessed as morphological nuclear changes by Hoechst33342-staining based high content screening assay
HepG2 [2] = assay: Cytotoxicity in human HepG2 cells assessed as alteration of mitochondrial membrane potential by TMRM-fluorescence based high content screening assay
HepG2 [3] = assay: Cytotoxicity in human HepG2 cells assessed as elevation of intracellular calcium concentration by Fluo4AM-fluorescence based high content screening assay
HepG2 [4] = assay: Cytotoxicity against human HepG2 cells at 4 to 10 mM after 24 hrs by MTT assay

Measured: Activity

Nc1nc(=O)[nH]cc1F
inactive: all assays above
